Assays:
COX-I = COX-I (Homo sapiens, UniProt P23219); conditions: oral form; cited from earlier work
[1] = system: interleukin1b-induced prostaglandin E2 production; conditions: cited from earlier work
[2] = cited from earlier work
[3] = upon dissolution in solvents; cited from earlier work
Acute Lumbago patients = experiment: Randomized comparative open labeled multicentric trial in Acute Lumbago (Phase III, 300 patients); format: in vivo, human; conditions: at 8 hrs, 24 hrs and after 48 hrs of treatment; p<0.05
[4] = aqueous formulation; cited from earlier work

COX-I, sequence (P23219 24-599): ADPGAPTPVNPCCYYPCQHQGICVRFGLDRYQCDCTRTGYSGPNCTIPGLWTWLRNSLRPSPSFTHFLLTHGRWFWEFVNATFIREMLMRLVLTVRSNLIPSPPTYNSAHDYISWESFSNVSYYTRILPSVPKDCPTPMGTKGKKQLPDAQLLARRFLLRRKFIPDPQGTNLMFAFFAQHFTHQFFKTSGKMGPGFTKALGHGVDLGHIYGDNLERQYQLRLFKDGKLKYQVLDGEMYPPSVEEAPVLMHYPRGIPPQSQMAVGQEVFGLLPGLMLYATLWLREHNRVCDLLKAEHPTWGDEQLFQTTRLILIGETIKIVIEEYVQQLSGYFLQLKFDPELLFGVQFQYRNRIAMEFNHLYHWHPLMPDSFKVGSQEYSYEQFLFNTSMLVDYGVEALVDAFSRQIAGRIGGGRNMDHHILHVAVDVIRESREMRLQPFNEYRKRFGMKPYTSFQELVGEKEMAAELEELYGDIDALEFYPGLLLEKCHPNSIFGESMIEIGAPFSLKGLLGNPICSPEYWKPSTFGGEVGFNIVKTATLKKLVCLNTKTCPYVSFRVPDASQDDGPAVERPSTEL

| Compound | COX-I inhibitor effect (COX-I) | interleukin1b-induced prostaglandin E2 production [1] | solubility in water [2] | conversion into diclofenac [3] | modified Schober's test improvement (Acute Lumbago patients) | retention of drug inside body [4] [h] |
| --- | --- | --- | --- | --- | --- | --- |
| O=C(O)COC(=O)Cc1ccccc1Nc1c(Cl)cccc1Cl [Aceclofenac] | poor COX-I inhibitor effect | inhibits | water insoluble | immediately upon dissolution in most of the solvents |  |  |
| O=C(O)Cc1ccccc1Nc1c(Cl)cccc1Cl [Diclofenac] |  |  | soluble in water |  | progressive improvements | ≤ 8 |
